Where a SMILES comes first, the peptide text is derived from it. The star is where a group is joined. FITC = O=C1OC2(c3ccc(O)cc3Oc3cc(O)ccc32)c2ccc(NC(=S)*)cc21

In data set [1] the test system is mesophyll protoplasts of T. aestivum. Briefly: Cellular uptake of FITC-Vir in mesophyll protoplasts (confocal microscopy, fluorimetry). The class given is cell-based. The note with it: for CPP activity compared with the parent peptide: 15 μM. As to the method:
FIG. 2: illustrates the cellular internalization of FITC-Vir in mesophyll protoplasts of T. aestivum (A) Confocal microscopic images of cellular uptake (a) untreated (No peptide) (b) Vir (15 μM) (c) Tat (5 μM) (d) M-Tat (5 μM) (e) Dextran Sulphate (5 μM). (B) Quantitative estimation of uptake in protoplasts as assessed by fluorimetry.
In the said embodiment, a process for identification of optimum concentration and mechanism of cellular uptake of Vir of the peptide nano-carrier in the mesophyll protoplasts of T. aestivum is described below and illustrated in FIG. 2 by employing several endocytic inhibitors such as sodium azide, nocodazole, cytochalasin-D cytochalasin D, and chlorpromazine for blocking different energy-dependent pathways.
It is observed that with increasing concentration, the number of cells internalizing the peptide also increases proportionally.
(§1) FIG. 2 illustrates that in case of protoplasts, the uptake of Vir is affected in the presence of either endocytic inhibitors.
The viability of the protoplasts is affected at higher concentrations of the peptide, as a drop of 20-30% at 15 μM and 60-70% at 30 μM in the percentage of viable cells is observed with respect to untreated cells (viability 90%).

Data set [2] relates to HeLa cells. Nature of the data set: Cellular uptake of FITC-Vir in HeLa cells (confocal microscopy, flow cytometry). In kind it is cell-based. As to the method: FIG. 4: illustrates the cellular translocation of FITC-Vir in HeLa cells (A) confocal microscopy (a) Untreated (b) Vir (15 μM) (c) Tat (5 μM) (d) M-Tat (5 μM) (e) Dextran Sulphate (5 μM). (B) Quantitative estimation of uptake in HeLa cells as assessed by flow cytometry.
as §1
In one such embodiment, a method of targeting and delivering macromolecules to HeLa cells, as representative of mammalian system, using the peptide nanocarrier includes incubating the HeLa cells with the agrobacterium derived cell penetrating peptide nanocarrier Vir.
(§2) In the said embodiment, a process for identification of optimum concentration of the nano-carrier Vir in the HeLa cells is substantially the same as identification of optimum concentration of the nano-carrier Vir in the mesophyll protoplasts of T. aestivum as discussed above and is illustrated in FIG. 4. It is observed that the internalization in HeLa cells starts from 5 μM but a distinct nuclear localization is observed from 15 μM onwards as shown in FIG. 4. As observed with protoplasts, the peptide uptake in HeLa cells also increases with increasing concentration of peptide with 60-70% cells showing uptake at 15 μM and more than 90% cells showing uptake at 30 μM. However, unlike protoplasts, the viability of HeLa cells is not compromised greatly as 94% cells remained viable at 15 μM and 84% cells at 30 μM.
(In general: A flow cytometer gives signals particle by particle.)

Data set [3] can be described thus: Viability of HeLa cells after peptide incubation. Particulars: human, read-out: cells remained viable. In kind it is cell-based. As to the method: as §2
Data set [4] deals with root tips and leaf bases of T. aestivum. Briefly: Translocation of Vir in meristematic tissues (root tips, leaf bases). In kind it is cell-based. Particulars: 5-40 μM. As to the method: FIG. 3: illustrates the translocation of Vir in various tissues of T. aestivum (A) leaf bases (B) root tips. Different panels represent (a) Untreated (b) Dextran sulphate (5 μM) (c) M-Tat (5 μM) (d) Tat (5 μM) (e) Vir: 5 μM (f) 10 μM (g) 15 μM (h) 20 μM (i) 30 μM (j) 40 μM.
In another embodiment, a method of targeting and delivering macromolecules to a meristematic tissue that is, root tips and leaf bases, of T. aestivum(wheat plant) using the agrobacterium derived cell penetrating peptide nanocarrier Vir includes incubating the meristematic tissues that is, root tips and leaf bases, of T. aestivum with the peptide nanocarrier.
In the said embodiment, a process for identification of optimum concentration of the peptide nanocarrier in the meristematic tissues of T. aestivum is substantially the same as identification of optimum concentration of the nano-carrier Vir in the mesophyll protoplasts of T. aestivum as discussed above and is illustrated in FIG. 3.

In data set [5] the test system is Protoplast of wheat. Nature of the data set: Reporter protein (β-glucuronidase) delivery by Vir in wheat protoplasts. In kind it is cell-based, T. aestivum. The note with it: β-glucuronidase 1 μg, Vir 15 μM. The text has this: (§3) FIG. 6: illustrates an analysis of cargo delivery ability of Vir peptide in plant and mammalian systems. Macromolecule delivery by Vir in (A) Protoplast of wheat (B) leaf bases (C) root tips with (a) no peptide (b) GUS buffer only (c) β-glucuronidase only (d) Vir only (e) Vir-β-galactosidase; (D) HeLa cells with (a) non peptide (b) X-gal staining solution only (c) β-galactosidase only (d) Vir only (e) Vir-β-galactosidase.
(§4) In one embodiment, the ability of the peptide nanocarrier to deliver macromolecular cargoes in cells is evaluated by using β-glucuronidase enzyme as the reporter protein whereas β-galactosidase is employed for delivery in mammalian cells. The reporter proteins are non-covalently complexed with peptide nanocarrier, SEQ ID NO: 3 with the sequence KRPRRKRARGNRR at room temperature for 1 hr. The reporter proteins are used at a concentration of 1 μg while the peptide nanocarrier is used at the optimized concentration that is, 15 μM for complex formation. The peptide-protein complexes thus formed, were incubated with mammalian cells, plant protoplasts and tissues (root tips and leaf bases) further for 1 hour at 18-37 deg C. and room temperature, at pH range from 5.5 to 7.5 respectively. The enzyme delivery by peptide nanocarrier is examined by staining the cells with respective staining solutions. […]

The subject of data set [6] is root tips and leaf bases. Briefly: Reporter protein (β-glucuronidase) delivery by Vir in root tips and leaf bases. The class given is cell-based, T. aestivum. Particulars: β-glucuronidase 1 μg, Vir 15 μM.
From the text: as §3, §4

Data set [7] relates to HeLa cells. Briefly: Reporter protein (β-galactosidase) delivery by Vir in HeLa cells. The class given is cell-based. The note with it: β-galactosidase 1 μg, Vir 15 μM.
From the text: as §3, §4

Consider “KRPRRKAAAGNRR [M-Vir2, mutated VirD2 peptide, mutation in RKRAR to RKAAA]”, for which the “CPP activity compared with the parent peptide” value in data set [1] and in data set [2] (15 μM) was “remains similar to the parent peptide” in each case.
With “KAPARKRARGNRR [M-Vir1, mutated VirD2 peptide, mutation in KRPR to KAPA]”, the “CPP activity compared with the parent peptide” value in data set [1] and in data set [2] (15 μM) was “increased” throughout.
`C[C@H](NC(=O)[C@H](CCCNC(=N)N)NC(=O)[C@H](CCCCN)NC(=O)[C@H](CCCNC(=N)N)NC(=O)[C@H](CCCNC(=N)N)NC(=O)[C@@H]1CCCN1C(=O)[C@H](CCCNC(=N)N)NC(=O)[C@H](CCCCN)NC(=S)Nc1ccc2c(c1)C(=O)OC21c2ccc(O)cc2Oc2cc(O)ccc21)C(=O)N[C@@H](CCCNC(=N)N)C(=O)NCC(=O)N[C@@H](CC(N)=O)C(=O)N[C@@H](CCCNC(=N)N)C(=O)N[C@@H](CCCNC(=N)N)C(=O)O` [Vir, KRPRRKRARGNRR] ({FITC}-KRPRRKRARGNRR-OH; N-terminus and C-terminus assumed): the cells show uptake in data set [1] is reported as 10-15%. In addition, the “concentration from which prominent nuclear localization is observed” value in data set [1] is ≥ 15 µM. Besides, in data set [1] (distinct nuclear localization), the “number of cells exhibiting cellular uptake” value is given as 50-60%. Besides, in data set [1] (sodium azide, nocodazole, cytochalasin D, chlorpromazine), the “uptake in the presence of endocytic inhibitors” value is “affected”. In addition, the “concentration from which distinct nuclear localization is observed” value in data set [2] was ≥ 15 µM. In data set [2], the “concentration from which internalization starts” value was ≥ 5 µM. For the same compound, the results for the cells showing uptake in data set [2] (15 μM) and in data set [2] (30 μM) were 60-70% and “more than 90%”, respectively. For the same compound, the cellular uptake reduced in data set [2] (at 4° C.) and in data set [2] (in presence of chlorpromazine) was 20% each time. The “cellular uptake in presence of other inhibitors” value in data set [2] (other endocytic inhibitors) is given as “remained unaffected”. Besides, the viability at 15 µM in data set [3] (15 μM) came to 94%. Moreover, the viability at 30 µM in data set [3] (30 μM) was 84%. Also, the “uptake in the tissues” value in data set [4] is “increases with increasing concentration of the peptide”. Further, the delivery efficiency in data set [5] is on record as 50%; in data set [6] (leaf bases) it was 90%; in data set [6] (root tips) it was 90%. Moreover, the “efficiency of β-galactosidase delivery” value in data set [7] is recorded as “more than 90%”.

The record behind these values is patent US11254944B2, “Agrobacterium derived cell penetrating peptides as nanocarriers” (priority 2017, dated 2022).
